Results from patent publication US5455222A, “1-substituted-5-thiomethylthiocyanato-1H-tetrazoles, compositions containing them and their use as antimicrobial and marine antifouling agents” (The Dow Chemical Company, priority 1994, dated 1995).
≈ marks a conversion by molar mass, not a printed value.

These compounds were tested on Klebsiella pneumoniae (Kp) (assay: Minimum inhibitory concentration (MIC), bacteria in nutrient agar). Details: nutrient agar pH 6.8, 30° C., 48 hours.
Type: cell-based, Klebsiella pneumoniae ATCC 8308
Method: (§1) The minimum inhibitory concentration (MIC) for the compounds listed in Table I is determined for 9 bacteria, using nutrient agar, and 7 yeast and fungi, using malt yeast agar. A one percent solution of the test compound is prepared in a mixture of acetone and water.
(§2) Nutrient agar is prepared at pH 6.8, representing a neutral medium, and at pH 8.2, representing an alkaline medium. The nutrient agars are prepared by adding 23 g of nutrient agar to one liter of deionized water. In addition, the alkaline medium is prepared by adjusting a 0.04M solution of N-[tris-(hydroxymethyl)methyl]glycine buffered deionized water with concentrated sodium hydroxide to a pH of 8.5.
(§3) The test tubes containing the agar are cooled in a water bath until the temperature of the agar is 48° C. Then, an appropriate amount of the one percent solution of the test compound is added (except in the controls where no compound is added) to the respective test tubes so that the final concentrations are 500, 250, 100, 50, 25, 10, 5, 2.5, 1.0 and zero parts per million of the test compound in the agar, thus having a known concentration of test compound dispersed therein. The contents of the test tubes are then transferred to respective petri plates. After drying for 24 hours, the petri plates containing nutrient agar are inoculated with bacteria and those containing malt yeast agar are inoculated with yeast and fungi.
(§4) The inoculation with bacteria is accomplished by using the following procedure. Twenty-four hour-cultures of each of the bacteria are prepared by incubating the respective bacteria in tubes containing nutrient broth for 24 hours at 30° C. in a shaker. Dilutions of each of the 24 hour-cultures are made so that nine separate suspensions (one for each of the nine test bacteria) are made, each containing 10^8 colony forming units (CFU) per mL of suspension of a particular bacteria. Aliquots of 0.3 mL of each of the bacterial suspensions are used to fill the individual wells of Steer's Replicator. For each microbial suspension, 0.3 mL was used to fill three wells (i.e., three wells of 0.3 mL each) so that for the nine different bacteria, 27 wells are filled. The Steer's Replicator is then used to inoculate both the neutral and alkaline pH nutrient agar petri plates.
(§5) The inoculated petri plates are incubated at 30° C. for 48 hours and then read to determine if the test compound which is incorporated into the agar prevented growth of the respective bacteria.
(§6) Table II lists the bacteria, yeast and fungi used in the MIC test described above along with their respective American Type Culture Collection (ATCC) identification numbers.
(§7) In Tables III and IV, the MIC values of the compounds described in Table I as compared to the MIC of a standard commercial preservative (with 1-(3-chloroallyl)-3,5,7-triaza-1-azoniaadamantane chloride as the active agent and referred to in Tables III and IV as "STANDARD I") are set forth for the bacteria organisms and yeast/fungi organisms which are listed in Table II.

| Compound | MIC [µg/mL] |
| --- | --- |
| N#CSCSc1nnnn1-c1cccc(Cl)c1 [II, 1-(3-Chlorophenyl)-5-thiomethylthiocyanato-1H-tetrazole] | 250 (≈ 881 µM) |
| N#CSCSc1nnnn1-c1ccc(Cl)cc1 [III, 1-(4-Chlorophenyl)-5-thiomethylthiocyanato-1H-tetrazole] | 25 (≈ 88.1 µM) |
| Cc1cccc(-n2nnnc2SCSC#N)c1 [VI, 1-(3-Methylphenyl)-5-thiomethylthiocyanato-1H-tetrazole] | 250 (≈ 949 µM) |
| N#CSCSc1nnnn1C1CCCCC1 [X, 1-(Cyclohexyl)-5-thiomethylthiocyanato-1H-tetrazole] | 250 (≈ 979 µM) |

Same assay, conditions: nutrient agar pH 8.2, 30° C., 48 hours

| Compound | MIC [µg/mL] |
| --- | --- |
| N#CSCSc1nnnn1-c1cccc(Cl)c1 [II, 1-(3-Chlorophenyl)-5-thiomethylthiocyanato-1H-tetrazole] | 250 (≈ 881 µM) |
| N#CSCSc1nnnn1-c1ccc(Cl)cc1 [III, 1-(4-Chlorophenyl)-5-thiomethylthiocyanato-1H-tetrazole] | 50 (≈ 176 µM) |
| Cc1cccc(-n2nnnc2SCSC#N)c1 [VI, 1-(3-Methylphenyl)-5-thiomethylthiocyanato-1H-tetrazole] | 100 (≈ 380 µM) |
| N#CSCSc1nnnn1C1CCCCC1 [X, 1-(Cyclohexyl)-5-thiomethylthiocyanato-1H-tetrazole] | 100 (≈ 392 µM) |

These compounds were tested on Proteus vulgaris (Pv) in the same assay as above. Details: nutrient agar pH 6.8, 30° C., 48 hours.
Type: cell-based, Proteus vulgaris ATCC 881
Method: as §1, §2, §3, §4, §5, §6, §7

| Compound | MIC [µg/mL] |
| --- | --- |
| N#CSCSc1nnnn1-c1cccc(Cl)c1 [II, 1-(3-Chlorophenyl)-5-thiomethylthiocyanato-1H-tetrazole] | 100 (≈ 352 µM) |
| N#CSCSc1nnnn1-c1ccc(Cl)cc1 [III, 1-(4-Chlorophenyl)-5-thiomethylthiocyanato-1H-tetrazole] | 25 (≈ 88.1 µM) |
| Cc1cccc(-n2nnnc2SCSC#N)c1 [VI, 1-(3-Methylphenyl)-5-thiomethylthiocyanato-1H-tetrazole] | 100 (≈ 380 µM) |
| N#CSCSc1nnnn1C1CCCCC1 [X, 1-(Cyclohexyl)-5-thiomethylthiocyanato-1H-tetrazole] | 250 (≈ 979 µM) |

Same assay, conditions: nutrient agar pH 8.2, 30° C., 48 hours

| Compound | MIC [µg/mL] |
| --- | --- |
| N#CSCSc1nnnn1-c1cccc(Cl)c1 [II, 1-(3-Chlorophenyl)-5-thiomethylthiocyanato-1H-tetrazole] | 250 (≈ 881 µM) |
| N#CSCSc1nnnn1-c1ccc(Cl)cc1 [III, 1-(4-Chlorophenyl)-5-thiomethylthiocyanato-1H-tetrazole] | 100 (≈ 352 µM) |
| Cc1cccc(-n2nnnc2SCSC#N)c1 [VI, 1-(3-Methylphenyl)-5-thiomethylthiocyanato-1H-tetrazole] | 100 (≈ 380 µM) |
| N#CSCSc1nnnn1C1CCCCC1 [X, 1-(Cyclohexyl)-5-thiomethylthiocyanato-1H-tetrazole] | 250 (≈ 979 µM) |

What follows are compounds tested on Pseudomonas aeruginosa (Pa) in the same assay as above. Details: nutrient agar pH 6.8, 30° C., 48 hours.
Type: cell-based, Pseudomonas aeruginosa ATCC 10145
Method: as §1, §2, §3, §4, §5, §6, §7

| Compound | MIC [µg/mL] |
| --- | --- |
| N#CSCSc1nnnn1C1CCCCC1 [X, 1-(Cyclohexyl)-5-thiomethylthiocyanato-1H-tetrazole] | 250 (≈ 979 µM) |

Same assay, conditions: nutrient agar pH 8.2, 30° C., 48 hours

| Compound | MIC [µg/mL] |
| --- | --- |
| N#CSCSc1nnnn1-c1cccc(Cl)c1 [II, 1-(3-Chlorophenyl)-5-thiomethylthiocyanato-1H-tetrazole] | 500 (≈ 1760 µM) |
| N#CSCSc1nnnn1-c1ccc(Cl)cc1 [III, 1-(4-Chlorophenyl)-5-thiomethylthiocyanato-1H-tetrazole] | 25 (≈ 88.1 µM) |
| Cc1cccc(-n2nnnc2SCSC#N)c1 [VI, 1-(3-Methylphenyl)-5-thiomethylthiocyanato-1H-tetrazole] | 250 (≈ 949 µM) |
| N#CSCSc1nnnn1C1CCCCC1 [X, 1-(Cyclohexyl)-5-thiomethylthiocyanato-1H-tetrazole] | 250 (≈ 979 µM) |

Each compound was assayed on Salmonella choleraesuis (Sc) in the same assay as above. Details: Salmonella enterica, nutrient agar pH 6.8, 30° C., 48 hours.
Type: cell-based, Salmonella choleraesuis ATCC 10708
Method: as §1, §2, §3, §4, §5, §6, §7

| Compound | MIC [µg/mL] |
| --- | --- |
| N#CSCSc1nnnn1-c1cccc(Cl)c1 [II, 1-(3-Chlorophenyl)-5-thiomethylthiocyanato-1H-tetrazole] | 500 (≈ 1760 µM) |
| N#CSCSc1nnnn1-c1ccc(Cl)cc1 [III, 1-(4-Chlorophenyl)-5-thiomethylthiocyanato-1H-tetrazole] | 25 (≈ 88.1 µM) |
| Cc1cccc(-n2nnnc2SCSC#N)c1 [VI, 1-(3-Methylphenyl)-5-thiomethylthiocyanato-1H-tetrazole] | 500 (≈ 1900 µM) |
| N#CSCSc1nnnn1C1CCCCC1 [X, 1-(Cyclohexyl)-5-thiomethylthiocyanato-1H-tetrazole] | 250 (≈ 979 µM) |

Same assay, conditions: Salmonella enterica, nutrient agar pH 8.2, 30° C., 48 hours

| Compound | MIC [µg/mL] |
| --- | --- |
| N#CSCSc1nnnn1-c1cccc(Cl)c1 [II, 1-(3-Chlorophenyl)-5-thiomethylthiocyanato-1H-tetrazole] | 500 (≈ 1760 µM) |
| N#CSCSc1nnnn1-c1ccc(Cl)cc1 [III, 1-(4-Chlorophenyl)-5-thiomethylthiocyanato-1H-tetrazole] | 100 (≈ 352 µM) |
| Cc1cccc(-n2nnnc2SCSC#N)c1 [VI, 1-(3-Methylphenyl)-5-thiomethylthiocyanato-1H-tetrazole] | 500 (≈ 1900 µM) |
| N#CSCSc1nnnn1C1CCCCC1 [X, 1-(Cyclohexyl)-5-thiomethylthiocyanato-1H-tetrazole] | 500 (≈ 1960 µM) |

What follows are compounds tested on Staphylococcus aureus (Sa) in the same assay as above. Details: nutrient agar pH 6.8, 30° C., 48 hours.
Type: cell-based, Staphylococcus aureus ATCC 6538
Method: as §1, §2, §3, §4, §5, §6, §7

| Compound | MIC [µg/mL] |
| --- | --- |
| N#CSCSc1nnnn1-c1cccc(Cl)c1 [II, 1-(3-Chlorophenyl)-5-thiomethylthiocyanato-1H-tetrazole] | 250 (≈ 881 µM) |
| N#CSCSc1nnnn1-c1ccc(Cl)cc1 [III, 1-(4-Chlorophenyl)-5-thiomethylthiocyanato-1H-tetrazole] | 25 (≈ 88.1 µM) |
| Cc1cccc(-n2nnnc2SCSC#N)c1 [VI, 1-(3-Methylphenyl)-5-thiomethylthiocyanato-1H-tetrazole] | 25 (≈ 94.9 µM) |
| N#CSCSc1nnnn1C1CCCCC1 [X, 1-(Cyclohexyl)-5-thiomethylthiocyanato-1H-tetrazole] | 25 (≈ 97.9 µM) |

Same assay, conditions: nutrient agar pH 8.2, 30° C., 48 hours

| Compound | MIC [µg/mL] |
| --- | --- |
| N#CSCSc1nnnn1-c1cccc(Cl)c1 [II, 1-(3-Chlorophenyl)-5-thiomethylthiocyanato-1H-tetrazole] | 100 (≈ 352 µM) |
| N#CSCSc1nnnn1-c1ccc(Cl)cc1 [III, 1-(4-Chlorophenyl)-5-thiomethylthiocyanato-1H-tetrazole] | 50 (≈ 176 µM) |
| Cc1cccc(-n2nnnc2SCSC#N)c1 [VI, 1-(3-Methylphenyl)-5-thiomethylthiocyanato-1H-tetrazole] | 50 (≈ 190 µM) |
| N#CSCSc1nnnn1C1CCCCC1 [X, 1-(Cyclohexyl)-5-thiomethylthiocyanato-1H-tetrazole] | 50 (≈ 196 µM) |

What follows are compounds tested on Candida albicans (Ca) (assay: Minimum inhibitory concentration (MIC), yeast/fungi in malt yeast agar). Details: 30° C., 48 hours for yeast.
Type: cell-based, Candida albicans ATCC 10231
Method: as §1
(§8) Malt yeast agar is prepared by adding 3 g yeast extract and 45 g malt agar per liter of deionized water. The specific agar is dispensed in 30 mL aliquots into 25×200 mm test tubes, capped and autoclaved for 15 minutes at 115° C.
as §3
(§9) The inoculation with the yeast and fungi is accomplished as follows. Cultures of yeast and fungi are incubated for seven days on malt yeast agar at 30° C. These cultures are used to prepare suspensions by the following procedure. A suspension of each organism is prepared by adding 10 mL of sterile saline and 10 microliters of octylphenoxy polyethoxy ethanol to the agar slant of yeast or fungi. The sterile saline/octylphenoxy polyethoxy ethanol solution is then agitated with a sterile swab to suspend the microorganism grown on the slant. Each resulting suspension is diluted into sterile saline (1 part suspension to 9 parts sterile saline). Aliquots of these dilutions are placed in individual wells of Steer's Replicator and petri plates inoculated as previously described. The petri plates are incubated at 30° C. and read after 48 hours for yeast and 72 hours for fungi.
as §6, §7

| Compound | MIC [µg/mL] |
| --- | --- |
| N#CSCSc1nnnn1-c1cccc(Cl)c1 [II, 1-(3-Chlorophenyl)-5-thiomethylthiocyanato-1H-tetrazole] | < 10 |
| N#CSCSc1nnnn1-c1ccc(Cl)cc1 [III, 1-(4-Chlorophenyl)-5-thiomethylthiocyanato-1H-tetrazole] | 5 (≈ 17.6 µM) |
| Cc1cccc(-n2nnnc2SCSC#N)c1 [VI, 1-(3-Methylphenyl)-5-thiomethylthiocyanato-1H-tetrazole] | 5 (≈ 19 µM) |
| N#CSCSc1nnnn1C1CCCCC1 [X, 1-(Cyclohexyl)-5-thiomethylthiocyanato-1H-tetrazole] | 50 (≈ 196 µM) |

What follows are compounds tested on Trichoderma viride (Tv) in the same assay as above. Details: 30° C., 72 hours for fungi.
Type: cell-based, Trichoderma viride ATCC 8678
Method: as §1, §8, §3, §9, §6, §7

| Compound | MIC [µg/mL] |
| --- | --- |
| N#CSCSc1nnnn1-c1cccc(Cl)c1 [II, 1-(3-Chlorophenyl)-5-thiomethylthiocyanato-1H-tetrazole] | 25 (≈ 88.1 µM) |
| N#CSCSc1nnnn1-c1ccc(Cl)cc1 [III, 1-(4-Chlorophenyl)-5-thiomethylthiocyanato-1H-tetrazole] | 5 (≈ 17.6 µM) |
| Cc1cccc(-n2nnnc2SCSC#N)c1 [VI, 1-(3-Methylphenyl)-5-thiomethylthiocyanato-1H-tetrazole] | 25 (≈ 94.9 µM) |
| N#CSCSc1nnnn1C1CCCCC1 [X, 1-(Cyclohexyl)-5-thiomethylthiocyanato-1H-tetrazole] | 50 (≈ 196 µM) |

The compounds below were run on Aureobasidium pullulan (Ap) in the same assay as above. Details: 30° C., read after 48 hours for yeast and 72 hours for fungi.
Type: cell-based, Aureobasidium pullulan ATCC 16622
Method: as §1, §8, §3, §9, §6, §7

| Compound | MIC [µg/mL] |
| --- | --- |
| N#CSCSc1nnnn1-c1cccc(Cl)c1 [II, 1-(3-Chlorophenyl)-5-thiomethylthiocyanato-1H-tetrazole] | < 10 |
| N#CSCSc1nnnn1-c1ccc(Cl)cc1 [III, 1-(4-Chlorophenyl)-5-thiomethylthiocyanato-1H-tetrazole] | 2.5 (≈ 8.81 µM) |
| Cc1cccc(-n2nnnc2SCSC#N)c1 [VI, 1-(3-Methylphenyl)-5-thiomethylthiocyanato-1H-tetrazole] | < 1 |
| N#CSCSc1nnnn1C1CCCCC1 [X, 1-(Cyclohexyl)-5-thiomethylthiocyanato-1H-tetrazole] | < 1 |
